Columns and labels:
Test in all cases: relative viability (nuclei count vs DMSO), 5 days (fraction); higher = more cells survive
[1] = compound: COc1cccc2cc(-c3nc([C@H]4CC[C@H](C(=O)O)CC4)n4ncnc(N)c34)[nH]c12 [OSI-027] + CS(=O)(=O)CCNCc1ccc(-c2ccc3ncnc(Nc4ccc(OCc5cccc(F)c5)c(Cl)c4)c3c2)o1 [Lapatinib] (partner 2 µM)
Method in brief: (§1)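 Dosing by pin tool came one day after lung cancer cell lines were seeded in 1536-well plates, using either one drug or a fixed anchor-drug dose plus five library-drug doses (not always all listed) in √10 steps. After 5 days, nuclei were counted on 4× images. Relative viability is treated-well nuclei count divided by vehicle-well nuclei count, and values are medians of duplicate plates.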

[2] = compound: CCCS(=O)(=O)Nc1ccc(F)c(C(=O)c2c[nH]c3ncc(-c4ccc(Cl)cc4)cc23)c1F [Vemurafenib] + Cc1nc(Nc2ncc(C(=O)Nc3c(C)cccc3Cl)s2)cc(N2CCN(CCO)CC2)n1 [Dasatinib] (partner 0.075 µM)
Method in brief: as §1

[3] = compound: CCCS(=O)(=O)Nc1ccc(F)c(C(=O)c2c[nH]c3ncc(-c4ccc(Cl)cc4)cc23)c1F [Vemurafenib] + CC(=O)c1c(C)c2cnc(Nc3ccc(N4CCNCC4)cn3)nc2n(C2CCCC2)c1=O [Palbociclib] (partner 0.5 µM)
Method in brief: as §1

[4] = compound: COc1cccc2cc(-c3nc([C@H]4CC[C@H](C(=O)O)CC4)n4ncnc(N)c34)[nH]c12 [OSI-027] + N=C(N)NC(=N)NCCc1ccccc1 [Phenformin] (partner 250 µM)
Method in brief: as §1

Cell Line	relative viability ([1]; first compound 0.01 µM)	relative viability ([1]; first compound 0.03162 µM)	relative viability ([1]; first compound 0.1 µM)	relative viability ([1]; first compound 0.3162 µM)	relative viability ([1]; first compound 1 µM)	relative viability ([2]; first compound 0.03162 µM)	relative viability ([2]; first compound 0.1 µM)	relative viability ([2]; first compound 1 µM)	relative viability ([3]; first compound 0.03162 µM)	relative viability ([3]; first compound 0.1 µM)	relative viability ([3]; first compound 1 µM)	relative viability ([4]; first compound 0.01 µM)	relative viability ([4]; first compound 0.03162 µM)	relative viability ([4]; first compound 0.1 µM)	relative viability ([4]; first compound 0.3162 µM)	relative viability ([4]; first compound 1 µM)	relative viability ([2]; first compound 0.3162 µM)	relative viability ([3]; first compound 0.3162 µM)
NCI-H1792	0.749	0.826	0.815	0.739	0.213	0.84	0.733	0.815	0.623	0.581	0.643	0.126	0.168	0.228	0.204	0.173		
SW 1573	0.941	1.14	1.05	0.989	0.636	0.567	0.428	0.347	0.203	0.435	0.383	0.406	0.286	0.343	0.312	0.191	0.36	0.382
NCI-H2085	0.7	0.799	0.565	0.506	0.434	0.244	0.273	0.256	0.422	0.451	0.509	0.727	0.701	0.704	0.623	0.503	0.515	0.416
EPLC-272H	1.12	0.965	0.699	0.664	0.55	0.299	0.25	0.41	0.34	0.3	0.353	0.309	0.258	0.3	0.276	0.211	0.338	0.413
HARA	0.741	0.577	0.549	0.418	0.405	0.272	0.215	0.201	0.26	0.17	0.318	0.439	0.425	0.488	0.408	0.261	0.195	0.304
LU99A	0.834	0.921	0.789	0.309	0.218	0.425	0.554	0.431	0.386	0.401	0.373	0.777	0.844	0.869	0.593	0.292	0.389	
NCI-H2087	1.11	1.06	0.873	0.951	0.769	0.751	0.789	0.897	0.204	0.222	0.275	0.495	0.492	0.424	0.398	0.271		0.266
NCI-H1734	1.03	1.12	0.935	0.781	0.489	0.436	0.474	0.432	0.344	0.335	0.317	0.398	0.398	0.384	0.346	0.238	0.357	0.343
NCI-H2170	0.268	0.283	0.257	0.27	0.254	0.523	0.214	0.54	0.403		0.344	0.429	0.401	0.431	0.436	0.275	0.639	0.396
PC-3 [JPC-3]	0.452	0.454	0.412	0.327	0.298	0.921		1.08			0.565	0.482	0.465	0.49	0.449	0.433	0.9	0.485
ABC-1	1.33	0.991	1.04	0.97	0.553		0.563	0.567	0.744	0.57	0.545	0.237	0.244	0.236	0.2	0.197		0.767
NCI-H1651	0.842		0.728	0.725	0.371	0.417	0.462	0.452	0.511	0.463	0.53	0.364	0.285	0.299	0.256	0.25	0.277	0.488
NCI-H460	1.11	0.716	0.814	0.536	0.102	0.469	0.545	0.537	0.146	0.152	0.203	0.656	0.648	0.567	0.542	0.224	0.341	0.108
NCI-H2228	1.05	1.21	0.958		0.539	0.399	0.474	0.502	0.698	0.772	0.414	0.305	0.324	0.307	0.251	0.198	0.54	0.88
LOU-NH91	0.727	0.702	0.626	0.598	0.482	0.509		0.572	0.515	0.497	0.551	0.699	0.679	0.504	0.548	0.411		0.536
RERF-LC-KJ	0.778	0.843	0.78	0.589	0.376	0.768	0.768	0.786	1.03	0.968	1.11	0.458	0.423	0.383	0.383	0.361	0.586	1.07
EKVX	0.169	0.189	0.201	0.16	0.153	0.51		0.515	0.41		0.422	0.238	0.205	0.245	0.222	0.195	0.661	0.367
NCI-H1395	0.854	0.98	0.829	0.701	0.735	0.415	0.411	0.403	0.553	0.613	0.611	0.446	0.431	0.396	0.401	0.369		0.523

Cell Line	relative viability ([1]; first compound 0.01 µM)	relative viability ([1]; first compound 0.03162 µM)	relative viability ([1]; first compound 0.1 µM)	relative viability ([1]; first compound 0.3162 µM)	relative viability ([1]; first compound 1 µM)	relative viability ([2]; first compound 0.03162 µM)	relative viability ([2]; first compound 0.1 µM)	relative viability ([2]; first compound 1 µM)	relative viability ([3]; first compound 0.03162 µM)	relative viability ([3]; first compound 0.1 µM)	relative viability ([3]; first compound 1 µM)	relative viability ([4]; first compound 0.01 µM)	relative viability ([4]; first compound 0.03162 µM)	relative viability ([4]; first compound 0.1 µM)	relative viability ([4]; first compound 0.3162 µM)	relative viability ([4]; first compound 1 µM)	relative viability ([2]; first compound 0.3162 µM)	relative viability ([3]; first compound 0.3162 µM)
CAL-12T	0.648	0.589	0.499	0.375	0.418	0.42	0.266	0.374	0.408	0.251	0.439	0.584	0.644	0.512	0.618	0.355	0.454	0.444
201T	1.05	1.08	0.986	0.975	0.957	0.525	0.521	0.523	0.37	0.309	0.402	0.477	0.45	0.445	0.407	0.371	0.622	0.365
SK-LU-1	0.888	0.817	0.656	0.519	0.29	0.16	0.17	0.185	0.388	0.377	0.337	0.515	0.467	0.447	0.318	0.219	0.159	0.368
LC-2-ad	1.05	0.981	0.978	1.1	0.709	0.592	0.669	0.559	0.449	0.466	0.442	0.566	0.647	0.51	0.509	0.449		0.481
NCI-H1793	0.619	0.65	0.559	0.264	0.26	0.415		0.307	0.287	0.226	0.344	0.365	0.367	0.306	0.297	0.184	0.237	0.303
NCI-H1944	0.802	0.875	0.799	0.631	0.444	0.198	0.189	0.199	0.332		0.385	0.2	0.222	0.19	0.172	0.137	0.192	0.313
NCI-H650	0.838	0.883	0.516	0.707	0.39	0.392	0.52	0.395	0.359	0.288	0.287	0.424	0.487	0.394	0.417	0.285		0.241
SK-MES-1	0.481	0.435	0.371	0.316	0.253	0.372	0.155	0.389	0.314		0.318	0.637	0.608	0.64	0.576	0.305	0.303	0.314
NCI-H2347	0.983	0.921	0.885	0.806	0.516	0.346	0.311	0.346	0.427	0.429	0.498	0.442	0.371	0.293	0.262	0.296	0.692	0.44
PC-14	0.3	0.306	0.293	0.255	0.179	0.229		0.267	0.449		0.537	0.582	0.466	0.488	0.392	0.276	0.228	0.504
LXF-289	0.99	0.885	0.926	0.9	0.74	0.203	0.236	0.181	0.548	0.526	0.667	0.525	0.518	0.543	0.484	0.398	0.0972	0.601
NCI-H358	0.444	0.475	0.394	0.389	0.309	0.142	0.116	0.203	0.113	0.139	0.132	0.309	0.301	0.311	0.334	0.283	0.22	0.175
NCI-H1355	1.13	0.957	0.873	0.561	0.363	0.671	0.703	0.745	0.384	0.325	0.45	0.409	0.45	0.46	0.407	0.304	0.466	0.436
NCI-H727	0.906	0.875	0.692	0.666	0.577	0.323		0.421	0.699	0.631	0.661	0.569	0.546	0.557	0.466	0.407	0.724	0.811
NCI-H2023	0.735	0.663	0.567	0.393	0.18	0.507	0.506	0.489	0.332	0.33	0.38	0.452	0.367	0.397	0.301	0.213	0.444	0.39
NCI-H2009	0.97	0.963	0.848	0.839	0.546	0.294	0.278	0.254	0.175	0.172	0.199	0.477	0.48	0.487	0.425	0.277	0.171	0.161
HCC-78	0.6	0.77	0.472	0.787	0.518	0.359	0.329	0.37	0.495	0.464	0.537	0.624	0.626	0.593	0.558	0.432	0.593	0.473
NCI-H322M	0.578	0.651	0.543	0.57	0.559	0.241		0.229	0.444		0.475	0.737	0.748	0.674	0.531	0.498		0.557
